According to PMC2888031 (Bioorganic & medicinal chemistry, 2009):
“Also recorded” adds a separate entry of the source.

The molecules below were run on S. aureus (assay: S. aureus culture growth in the presence of 500 µM inhibitor). Conditions: vs control cultures in 2.5% DMSO (Fig. 4).
Type: cell-based, Staphylococcus aureus

Structure (SMILES)	effect on S. aureus growth
CCSc1c(S)cnn(-c2ccccc2)c1=O [2–9]	do not significantly inhibit S. aureus growth; also recorded: not bactericidal; also recorded: do not impair microbial growth in cell culture
CCOc1cnn(-c2cccc(C)c2)c(=O)c1S [2–20]	do not significantly inhibit S. aureus growth; also recorded: not bactericidal
CC1=NN(c2ccccc2)C(=S)/C1=C/Nc1ccc(/N=N/c2ccccc2)cc1 [3–9]	do not substantially affect bacterial growth; also recorded: non-bacteriocidal
CC1=NN(c2ccccc2)C(=S)/C1=C/Nc1c(Br)cc(Br)cc1Br [3–12]	do not substantially affect bacterial growth; also recorded: no detrimental effect to bacterial viability; also recorded: non-bacteriocidal; also recorded: do not impair microbial growth in cell culture
CC1=NN(c2ccccc2)C(=S)/C1=C/Nc1ccccn1 [3–17]	do not substantially affect bacterial growth
Cc1ccc(N2C(=O)/C(=C/c3cc([N+](=O)[O-])cc(Br)c3O)SC2=S)c(C)c1 [Compound 1]	toxic
COc1c(S)cnn(-c2cccc(Cl)c2)c1=O [Compound 2]	only modestly perturb growth
CC1=NN(c2ccccc2)C(=S)/C1=C/Nc1ccc(Br)cc1 [Compound 3-1]	do not substantially affect bacterial growth
CC1=NN(c2ccccc2)C(=S)/C1=C/Nc1ccc([N+](=O)[O-])cc1 [Compound 3]	only modestly perturb growth

These molecules were tested against Bacillus anthracis sortase enzyme (BaSrtA) (Bacillus anthracis, UniProt P0DPQ5) (assay: biochemical). Conditions: not given.
Sequence of Bacillus anthracis sortase enzyme (BaSrtA) (P0DPQ5 57-210 limits assumed): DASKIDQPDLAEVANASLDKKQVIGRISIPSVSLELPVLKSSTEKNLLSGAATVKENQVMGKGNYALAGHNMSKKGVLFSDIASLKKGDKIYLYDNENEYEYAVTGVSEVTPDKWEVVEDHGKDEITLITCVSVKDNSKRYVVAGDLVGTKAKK

Structure (SMILES)	IC50 [nM]
CC1=NN(c2ccccc2)C(=S)/C1=C/Nc1c(Br)cc(Br)cc1Br [3–12]	1700 ± 200
